The source of these data is PMC9965906, “Discovery and Development Strategies for SARS-CoV-2 NSP3 Macrodomain Inhibitors” (Pathogens, 2023).

Several values for one entry are separate records, joined by “and”; a condition that tells them apart may be missing. Equal values may be shown once.

A word on the IC50: it is the midpoint of a concentration-inhibition curve.

This experiment deals with SARS-CoV-2 NSP3 Mac1 (Severe acute respiratory syndrome coronavirus 2, UniProt P0DTD1). In words: biochemical. It is filed as binding. Particulars: MIDAS hit compounds and analogues; for IC50 / IC50 in µM: top concentration 125 µM, 8-point 1:1 dilution, duplicate; for IC50: read-out: IC50; for inhibition at 125 µM: read-out: Inhibition at top concentration of 125 µM (%).

Turning to `Cn1ccc2c(-c3ccc(C(=O)N4CCOCC4)o3)ccnc21` [IAL-MD0131, O=C(C1=CC=C(C2=C3C(N(C)C=C3)=NC=C2)O1)N4CCOCC4], the “Inhibition at top concentration of 125 µM (%)” value (shortened to “Inhibition … (%)”) is “Not measurable due to compound precipitation” and the 50% inhibitory concentration (IC50) turned out to be 4.9 µM.
In the same order, the values of `Cn1ccc2c(-c3ccc(C(=O)NC4CC4)o3)ccnc21` [IAL-MD0132, O=C(NC1CC1)C2=CC=C(C3=C4C(N(C)C=C4)=NC=C3)O2] are “Not measurable due to compound precipitation” and 7.2 µM.
With `CN(C)C(=O)c1ccc(-c2ccnc3c2ccn3C)o1` [IAL-MD0133, O=C(N(C)C)C1=CC=C(C2=C3C(N(C)C=C3)=NC=C2)O1], the “Inhibition … (%)” value was “Not measurable due to compound precipitation” and the IC50 was 8.5 µM.
As for `CCCCNC(=O)c1ccc(-c2cc(N)nc3[nH]ccc23)o1` [IAL-MD0134, O=C(NCCCC)C1=CC=C(C2=C3C(NC=C3)=NC(N)=C2)O1], the inhibition at 125 µM was 77.8%; the IC50 was 25 µM and 25.3 µM.
For `CN(C)C(=O)c1cncc(-c2ccnc3c2ccn3C)n1` [IAL-MD0135, O=C(C1=NC(C2=C3C(N(C)C=C3)=NC=C2)=CN=C1)N(C)C], the inhibition at 125 µM turned out to be 18.3% and the “IC50 in µM” value is given as “Not measurable”.
In the same order, the values of `Cn1ccc2c(-c3ncccc3C(N)=O)ccnc21` [IAL-MD0136, O=C(N)C1=C(C2=C3C(N(C)C=C3)=NC=C2)N=CC=C1] are 49.7% and “Not measurable”.
Regarding `Cn1ccc2c(-c3cncc(C(=O)N4CCCCC4)n3)ccnc21` [IAL-MD0137, O=C(C1=CN=CC(C2=C3C(N(C)C=C3)=NC=C2)=N1)N4CCCCC4], the inhibition at 125 µM stood at 25.8% and the “IC50 in µM” value was “Not measurable”.
On to `Cn1ccc2c(-c3ncccc3C(=O)N3CCCCC3)ccnc21` [IAL-MD0138, O=C(C1=CC=CN=C1C2=C3C(N(C)C=C3)=NC=C2)N4CCCCC4], for which the inhibition at 125 µM was determined as 79.4% and the concentration for half-maximal inhibition (IC50) is 36 µM.
`Cn1ccc2c(-c3cc(C(=O)N4CCCC4)ccn3)ccnc21` [IAL-MD0139, O=C(C1=CC(C2=C3C(N(C)C=C3)=NC=C2)=NC=C1)N4CCCC4]: the inhibition at 125 µM stood at 21.7% and the “IC50 in µM” value is recorded as “Not measurable”.
Regarding `CN(C)C(=O)c1ccc(-c2ccnc3c2ccn3C)nc1` [IAL-MD0140, O=C(N(C)C)C1=CN=C(C2=C3C(N(C)C=C3)=NC=C2)C=C1], the “Inhibition … (%)” value is on record as “Not measurable due to compound precipitation” and the half-maximal inhibitory concentration (IC50) was 6.9 µM.
On to `CN(C)C1CCN(C(=O)c2ccc(-c3ncnc4[nH]ccc34)cc2)C1` (centres unmarked) [IAL-MD0141, O=C(N1CC(N(C)C)CC1)C2=CC=C(C3=C4C(NC=C4)=NC=N3)C=C2.O=CO], for which the inhibition at 125 µM turned out to be 81.3% and the IC50 stood at 25.2 µM.
With `Cn1ccc2c(-c3ccc(C(=O)N4CCCC4)cn3)ccnc21` [IAL-MD0142, O=C(C1=CN=C(C2=C3C(N(C)C=C3)=NC=C2)C=C1)N4CCCC4], the inhibition at 125 µM was determined as 37.9% and the “IC50 in µM” value is reported as “Not measurable”.
Regarding `CC(=O)N1CCN(C(=O)c2ccc(-c3ncnc4[nH]ccc34)cc2)CC1` [IAL-MD0143, O=C(C1=CC=C(C2=C3C(NC=C3)=NC=N2)C=C1)N4CCN(C(C)=O)CC4], the inhibition at 125 µM was 71.9% and the concentration for half-maximal inhibition (IC50) is 45 µM.
Regarding `CCN(C)C(=O)c1ccc(-c2ccnc3c2ccn3C)nc1` [IAL-MD0144, O=C(N(CC)C)C1=CN=C(C2=C3C(N(C)C=C3)=NC=C2)C=C1], the inhibition at 125 µM is 23.8% and the “IC50 in µM” value was “Not measurable”.
`Cn1ccc2c(-c3ccc(Cn4ccnc4)cn3)ccnc21` [IAL-MD0145, CN1C=CC2=C(C3=NC=C(CN4C=CN=C4)C=C3)C=CN=C21]: the inhibition at 125 µM was found to be 81.1% and the IC50 is 14 µM.
On to `CN1CCN(C(=O)c2cncc(-c3ccnc4c3ccn4C)n2)CC1` [IAL-MD0146, O=C(C1=CN=CC(C2=C3C(N(C)C=C3)=NC=C2)=N1)N4CCN(C)CC4], for which the inhibition at 125 µM was determined as 3.7% and the “IC50 in µM” value is “Not measurable”.
